# Test system: contextual memory (freezing) in C57BL/6 male mice
# Experiment: Contextual Memory Assay: Fear Conditioning
# Format: in vivo, mouse
# Details: 0.1 mg/kg injected 20 minutes before training
# Text: Contextual memory is a form of Pavlovian fear conditioning in which a naive mouse is placed into a novel chamber (context) containing distinct visual, olfactory and tactile cues. After several minutes of acclimation, the mouse receives a brief, mild electric shock to its feet. From this negative experience, the mouse will remember for months that that chamber is dangerous. When placed back into the same context at some later time after training, the mouse's natural response to danger is to “freeze,” sitting stone still for many seconds. This is similar to what happens to humans when they experience fear. The percent of time during an observation period that the mouse spends frozen represents a quantitative measure (memory score) of its memory of the context.
# Young-adult (10-12 weeks old) C57BL/6 male mice and Sprague Dawley male rats of 250-300 g (Taconic, N.Y.) were used. Mice were group-housed (5 mice) in standard laboratory cages while rats were housed in pairs and maintained on a 12:12 light-dark cycle. The experiments were always conducted during the light phase of the cycle. With the exception of testing times, the mice had ad lib access to food and water. […]
# To assess contextual memory, a modified contextual fear conditioning task originally developed for evaluation of memory in CREB knock-out mice was used (Bourtchouladze, et. aL, Cell, 1994, 79, 59-68). […] 24 hours after training, the mouse was placed into the same training chamber and contextual memory was assessed by scoring freezing behavior (‘freezing’ serves as memory score). […]
# All experiments were designed and performed in a balanced fashion, meaning that (i) for each experimental condition (e.g. a specific dose-effect) an equal number of experimental and control mice was used; (ii) each experimental condition was replicated 2-3 independent times, and replicate days were added to generate final number of subjects. […] Data were analyzed by Student's unpaired t test using a software package (Statview 5.0.1; SAS Institute, Inc). All values in the text and figures are expressed as mean+SEM. […]
row,SMILES,effect on contextual memory
1,"COc1ccc(N2CCN[C@@H](CC3CCCCC3)C2)cc1OC1CCCC1 [Compound 126, (S)-3-Cyclohexylmethyl-1-(3-cyclopentyloxy-4-methoxy-phenyl)-piperazine]",no significant effect

# Same assay, conditions: 1 mg/kg injected 20 minutes before training, 2 training trials, vehicle 22.3+3.2%, p<0.05
row,SMILES,freezing (memory score) 24 hours after training
1,"COc1ccc(N2CCN[C@@H](CC3CCCCC3)C2)cc1OC1CCCC1 [Compound 126, (S)-3-Cyclohexylmethyl-1-(3-cyclopentyloxy-4-methoxy-phenyl)-piperazine]",32.5+3.2%

# Same assay, conditions: 10 mg injected 20 minutes before training, 2 training trials, vehicle 22.3+3.2%, p<0.005
row,SMILES,freezing (memory score) 24 hours after training [%]
1,"COc1ccc(N2CCN[C@@H](CC3CCCCC3)C2)cc1OC1CCCC1 [Compound 126, (S)-3-Cyclohexylmethyl-1-(3-cyclopentyloxy-4-methoxy-phenyl)-piperazine]",38.3

# Test system: PDE4 from human U-937 cells
# Experiment: PDE4 Inhibition Assay
# Format: biochemical
# Details: 1 μM cAMP, [3H]-cAMP, read-out: Potency Class (Inhibitory Concentration) in the PDE4 assay
# Summary of the method: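 U-937-derived PDE4 (2 μg/ml) was preincubated with compound in Tris-HCl pH 7.5 for 15 min at 25° C. It then reacted 20 min with cAMP plus [^3H]-cAMP. [^3H]-AMP was converted to [^3H]-adenosine by nucleotidase, resin-separated and counted; IC50 came from percent inhibition.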
row,IC50 [nM],SMILES
1,200 to 1000,"COc1ccc(N2CCN(C(=O)C(=O)c3ccco3)[C@@H](Cc3ccccc3)C2)cc1OC1CCCC1 [Compound 302, (S)-1-(2-benzyl-4-(3-(cyclopentyloxy)-4-methoxyphenyl)piperazin-1-yl)-2-(furan-2-yl)ethane-1,2-dione]"
2,> 1000,"COc1ccc(N2CCN(C(=O)COC(C)=O)[C@@H](Cc3ccccc3)C2)cc1OC1CCCC1 [Compound 284, (S)-2-(2-benzyl-4-(3-(cyclopentyloxy)-4-methoxyphenyl)piperazin-1-yl)-2-oxoethyl acetate]"
3,< 200,"COc1ccc(N2CCN(C(=O)Cc3nn[nH]n3)[C@@H](Cc3ccccc3)C2)cc1OC1CCCC1 [Compound 294, (S)-1-(2-benzyl-4-(3-(cyclopentyloxy)-4-methoxyphenyl)piperazin-1-yl)-2-(2H-tetrazol-5-yl)ethanone]"
4,> 1000,"COc1ccc(N2CCN(C(C)=O)[C@@H](CN3CCCC3)C2)cc1OC1CCCC1 [Compound 249, (S)-1-(4-(3-(cyclopentyloxy)-4-methoxyphenyl)-2-(pyrrolidin-1-ylmethyl)piperazin-1-yl)ethanone]"
5,> 1000,"COc1ccc(N2CCN(C(=O)[C@H]3CCC(=O)O3)[C@@H](Cc3ccccc3)C2)cc1OC1CCCC1 [Compound 296, (R)-5-((S)-2-benzyl-4-(3-(cyclopentyloxy)-4-methoxyphenyl)piperazine-1-carbonyl)dihydrofuran-2(3H)-one]"
6,> 1000,"COc1ccc(N2CCN(C(=O)Cn3ccnc3C)[C@@H](Cc3ccccc3)C2)cc1OC1CCCC1 [Compound 289, (S)-1-(2-benzyl-4-(3-(cyclopentyloxy)-4-methoxyphenyl)piperazin-1-yl)-2-(2-methyl-1H-imidazol-1-yl)ethanone]"
7,< 200,"COc1ccc(N2CCN(C(=O)Cc3ncc[nH]3)[C@@H](Cc3ccccc3)C2)cc1OC1CCCC1 [Compound 301, (S)-1-(2-benzyl-4-(3-(cyclopentyloxy)-4-methoxyphenyl)piperazin-1-yl)-2-(1H-imidazol-2-yl)ethanone]"
8,< 200,"COc1ccc(N2CCN(C(=O)Cc3cc[nH]c3)[C@@H](Cc3ccccc3)C2)cc1OC1CCCC1 [Compound 307, (S)-1-(2-benzyl-4-(3-(cyclopentyloxy)-4-methoxyphenyl)piperazin-1-yl)-2-(1H-pyrrol-3-yl)ethanone]"
9,> 1000,"COc1ccc(N2CCN(C(=O)[C@H]3C[C@H](O)CN3)[C@@H](Cc3ccccc3)C2)cc1OC1CCCC1 [Compound 278, ((S)-2-benzyl-4-(3-(cyclopentyloxy)-4-methoxyphenyl)piperazin-1-yl)((2R,4S)-4-hydroxypyrrolidin-2-yl)methanone]"
10,200 to 1000,"COCC(=O)N1CCN(c2ccc(OC)c(OC3CCCC3)c2)C[C@@H]1Cc1ccccc1 [Compound 245, (S)-1-(2-benzyl-4-(3-(cyclopentyloxy)-4-methoxyphenyl)piperazin-1-yl)-2-methoxyethanone]"
11,> 1000,CCOc1ccc(N2CCN(C(C)=O)[C@@H](Cn3cccn3)C2)cc1OC1CCCC1 [Compound 254]
12,> 1000,"COc1ccc(N2CCN(C(=O)Cn3ccnc3)[C@@H](Cc3ccccc3)C2)cc1OC1CCCC1 [Compound 290, (S)-1-(2-benzyl-4-(3-(cyclopentyloxy)-4-methoxyphenyl)piperazin-1-yl)-2-(1H-imidazol-1-yl)ethanone]"
13,> 1000,"CCc1nn(C2CCC2)c2cc(N3CCN(CC(N)=O)[C@@H](Cc4ccccc4)C3)ccc12 [Compound 275, (S)-2-(2-benzyl-4-(1-cyclobutyl-3-ethyl-1H-indazol-6-yl)piperazin-1-yl)acetamide]"

row,SMILES,IC50 [nM]
1,"NC(=O)CN1CCN(c2ccc(OC(F)F)c(OC3CCC3)c2)C[C@@H]1Cc1ccccc1 [Compound 273, (S)-2-(2-benzyl-4-(3-cyclobutoxy-4-(difluoromethoxy)phenyl)piperazin-1-yl)acetamide]",< 200
2,"COc1ccc(N2CCN(C(=O)Cc3n[nH]c(C)n3)[C@@H](CN3CCOCC3)C2)cc1OC1CCCC1 [Compound 256, (S)-1-(4-(3-(cyclopentyloxy)-4-methoxyphenyl)-2-(morpholinomethyl)piperazin-1-yl)-2-(5-methyl-1H-1,2,4-triazol-3-yl)ethanone]",< 200

# From US9624200B2, “Therapeutic piperazines” (DART NEUROSCIENCE (CAYMAN) LTD., priority 2006, dated 2017)
